Measured values from patent US20030083325A1, “Serotonin antagonists” (priority 1992, published 2003).
Structures can show the parent of a compound that is named as a salt.

biological target: T1, 5HT2 receptor (Rattus norvegicus, UniProt P14842); assay: spiroperidol binding test (5HT2 binding affinity); conditions: [3H] spiroperidol binding; concentration of compound at 50% inhibition
T1 construct: from tissue
Source text: As noted above, the compounds of Formula I are serotonin 5HT2 antagonists. […] In this test, 5HT2 receptors are exposed to both [^3H] spiroperidol, (a substance known to have a specific affinity for the receptor) and the test compound. The extent to which there is a decrease in binding of the [^3H] spiroperidol to the receptor is indicative of the affinity of the test compound for the 5HT2 receptor.
d) any reference to “5HT2 binding affinity” refers to the spiroperidol binding test as described by Peroutka et al., in Mol.Pharmacol., Vol. 16, pages 687-699 (1979).

T1 sequence (P14842 whole entry): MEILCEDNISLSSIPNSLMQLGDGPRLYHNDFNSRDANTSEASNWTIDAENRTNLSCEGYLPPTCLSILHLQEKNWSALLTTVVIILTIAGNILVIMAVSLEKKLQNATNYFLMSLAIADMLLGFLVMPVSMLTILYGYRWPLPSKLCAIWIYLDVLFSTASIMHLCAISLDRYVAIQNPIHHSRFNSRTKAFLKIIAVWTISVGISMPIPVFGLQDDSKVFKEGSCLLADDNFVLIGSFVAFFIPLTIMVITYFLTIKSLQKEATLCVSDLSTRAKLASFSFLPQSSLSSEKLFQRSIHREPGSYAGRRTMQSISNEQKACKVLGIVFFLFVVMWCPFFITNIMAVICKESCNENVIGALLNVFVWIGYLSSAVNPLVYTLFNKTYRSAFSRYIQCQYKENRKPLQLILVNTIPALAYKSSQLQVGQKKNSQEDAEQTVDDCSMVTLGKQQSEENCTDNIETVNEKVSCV

SMILES	IC50 [nM]
O=C(CN1CCC(CN2C(=O)[C@H]3CCCC[C@H]3C2=O)CC1)c1ccc(F)cc1 [Example 4, cis-2-[[1-[2-(4-fluorophenyl)-2-oxoethyl]-4-piperidinyl]methyl]hexahydro-1H-isoindole-1,3(2H)-dione monohydrochloride]	162
O=C(CN1CCC(CN2C(=O)C3C4C=CC(CC4)C3C2=O)CC1)c1ccc(F)cc1 (stereo not drawn) [Example 1, 2-[[1-[2-(4-fluorophenyl)-2-oxoethyl]-4-piperidinyl]methyl]-3a,4,7,7a-tetrahydro-4,7-ethano-1H-isoindole-1,3(2H)-dione monohydrochloride]	48
O=C(CN1CCC(CN2C(=O)[C@@H]3CCCC[C@H]3C2=O)CC1)c1ccc(F)cc1 (relative stereo) [Example 5, trans-2-[[1-[2-(4-fluorophenyl)-2-oxoethyl]-4-piperidinyl]methyl]hexahydro-1H-isoindole-1,3(2H)-dione monohydrochloride]	76
O=C(CN1CCC(CN2C(=O)C(c3ccccc3)=C(c3ccccc3)C2=O)CC1)c1ccc(F)cc1 [Example 7, 1-[[1-[2-(4-fluorophenyl)-2-oxoethyl]-4-piperidinyl]methyl]-3,4-diphenyl-1H-pyrrole-2,5-dione monohydrohydrochloride]	307
O=C(CN1CCC(CN2C(=O)c3ccccc3C2=O)CC1)c1ccccc1 [Example 10, 2-[[1-[2-phenyl-2-oxoethyl]-4-piperidinyl]methyl]-1H-isoindole-1,3(2H)-dione monohydrochloride]	13
O=C(CN1CCC(Cn2c(=O)[nH]c3ccccc3c2=O)CC1)c1ccc(F)cc1 [Example 12, 2-[[1-[2-(4-fluorophenyl)-2-oxoethyl]-4-piperidinyl]methyl]-benzoyleneurea]	14.9
O=C(CN1CCC(CN2C(=O)C3C4C=CC(C4)C3C2=O)CC1)c1ccc(F)cc1 (stereo not drawn) [Example 6, 2-[[1-[2-(4-fluorophenyl)-2-oxoethyl]-4-piperidinyl]methyl]-3a,4,7,7a-tetrahydro-4,7-methano-1H-isoindole-1,3(2H)-dione monohydrochloride]	172

The next lines start with the values.

IC50 [nM]	SMILES
13	O=C(CN1CCC(CN2C(=O)c3ccccc3C2=O)CC1)c1ccc(F)cc1 [Example 2, 2-[[1-[2-(4-fluorophenyl)-2-oxoethyl]-4-piperidinyl]methyl]-1H-isoindole-1,3(2H)-dione]
206	O=C(CN1CCC(CN2C(=O)C3CC=CCC3C2=O)CC1)c1ccc(F)cc1 (stereo not drawn) [Example 3, 2-[[1-[2-(4-fluorophenyl)-2-oxoethyl]-4-piperidinyl]methyl]-3a,4,7,7a-tetrahydro-1H-isoindole-1,3(2H)-dione monohydrohydrochloride]
96	O=C(CN1CCC(CN2C(=O)c3cccc4cccc(c34)C2=O)CC1)c1ccc(F)cc1 [Example 9, 2-[[1-[2-(4-fluorophenyl)-2-oxoethyl]-4-piperidinyl]methyl]-1H-benz[de]isoquinoline-1,3(2H)-dione monohydrochloride]
116	Cc1ccc2c(c1)C(=O)N(CC1CCN(CC(=O)c3ccc(F)cc3)CC1)C2=O [Example 8, 2-[[1-[2-(4-fluorophenyl)-2-oxoethyl]-4-piperidinyl]methyl]-5-methyl-1H-isoindole-1,3(2H)-dione monohydrochloride]
33	O=C(CN1CCC(CN2C(=O)c3cccc(F)c3C2=O)CC1)c1ccc(F)cc1 [Example 11, 2-[[1-[2-(4-fluorophenyl)-2-oxoethyl]-4-piperidinyl]methyl]-4-fluoro-1H-isoindole-1,3(2H)-dione monohydrochloride]

system: thrombus formation; assay: not given; conditions: canine models; cited from earlier work

SMILES	prevention of thrombus formation
O=C(c1ccc(F)cc1)C1CCN(CCn2c(=O)[nH]c3ccccc3c2=O)CC1 [Ketanserin]	extremely effective in preventing thrombus formation

system: preference for alcohol and cocaine; assay: not given; conditions: rodent model of drug abuse; cited from earlier work

SMILES	preference for alcohol and cocaine
Cc1nc2sccn2c(=O)c1CCN1CCC(=C(c2ccc(F)cc2)c2ccc(F)cc2)CC1 [ritanserin]	abolished the preference for both alcohol and cocaine

system: coronary vessel constriction; assay: not given; conditions: patients with stable angina; cited from earlier work

SMILES	coronary vessel constriction
O=C(c1ccc(F)cc1)C1CCN(CCn2c(=O)[nH]c3ccccc3c2=O)CC1 [Ketanserin]	blocked coronary vessel constriction
